# Experimental data as given in patent publication US10227344B2, “CK2 inhibitors, compositions and methods thereof” (Polaris Pharmaceuticals, Inc., priority 2016, dated 2019).
# Tests used:
# Format in all cases: cell-based
# LoVo = test: Cancer cell panel, cell viability (resazurin): Colon, LoVo; conditions: 72 hours, labelled drug combined with Example 3
# 786-O = test: Cancer cell panel, cell viability (resazurin): Renal, 786-O; conditions: 786-O (Renal), 72 hours; labelled drug combined with Example 3
# U266 = test: Cancer cell panel, cell viability (resazurin): multiple myeloma, U266; conditions: 72 hours, labelled drug combined with Example 3
# MDA-MB-231 = test: Cancer cell panel, cell viability (resazurin): Breast, MDA-MB-231; conditions: MDA-MB-231 (Breast), 72 hours; labelled drug combined with Example 3
# EOL-1 = test: Cancer cell panel, cell viability (resazurin): Leukemia, EOL-1; conditions: EOL-1 (Leukemia), 72 hours; labelled drug combined with Example 3
# OVCAR-3 = test: Cancer cell panel, cell viability (resazurin): Ovarian, OVCAR-3; conditions: OVCAR-3 (Ovarian), 72 hours; labelled drug combined with Example 3
# Protocol: (§1) Cells were plated in 96-well plates and treated for 72 hours with a serially diluted CK2 inhibitor or anti-cancer drug or their combination. The suspension cell lines were treated right after plating, while the adherent cells were allowed to attach overnight prior to the start of the treatment.
# (§2) Cell viability was determined by adding resazurin to cell cultures and measuring fluorescence with a plate reader. Relative cell viability was calculated by dividing the cell viability signal from a test sample by that of a non-treated control. […] Bliss Independence and Highest Single Agent models were used to determine if there is synergy, additivity or antagonism between the CK2 inhibitor and an anti-cancer drug.
# Caov-3 = test: Cancer cell panel, cell viability (resazurin): Ovarian, Caov-3; conditions: Caov-3 (Ovarian), 72 hours; labelled drug combined with Example 3
# H460 = test: Cancer cell panel, cell viability (resazurin): NSCLC, H460; conditions: 72 hours, labelled drug combined with Example 3
# A549 = test: Cancer cell panel, cell viability (resazurin): NSCLC, A549; conditions: 72 hours, labelled drug combined with Example 3
# A2780 = test: Cancer cell panel, cell viability (resazurin): Ovarian, A2780; conditions: 72 hours, labelled drug combined with Example 3
# K562 = test: Cancer cell panel, cell viability (resazurin): Leukemia, K562; conditions: 72 hours, labelled drug combined with Example 3
# Protocol: as §1, §2
# HCT116 = test: Cancer cell panel, cell viability (resazurin): Colon, HCT116; conditions: 72 hours, labelled drug combined with Example 3
# MeWO = test: Cancer cell panel, cell viability (resazurin): Melanoma, MeWO; conditions: 72 hours, labelled drug combined with Example 3
# Protocol: as §1, §2
# HT29 = test: Cancer cell panel, cell viability (resazurin): Colon, HT29; conditions: 72 hours, labelled drug combined with Example 3
# Protocol: as §1, §2
# MDA-MB-157 = test: Cancer cell panel, cell viability (resazurin): Breast, MDA-MB-157; conditions: MDA-MB-157 (Breast), 72 hours; labelled drug combined with Example 3
# Colo205 = test: Cancer cell panel, cell viability (resazurin): Colon, Colo205; conditions: 72 hours, labelled drug combined with Example 3
# WM-115 = test: Cancer cell panel, cell viability (resazurin): Melanoma, WM-115; conditions: WM-115 (Melanoma), 72 hours; labelled drug combined with Example 3
# DLD-1 = test: Cancer cell panel, cell viability (resazurin): Colon, DLD-1; conditions: DLD-1 (Colon), 72 hours; labelled drug combined with Example 3
# H23 = test: Cancer cell panel, cell viability (resazurin): NSCLC, H23; conditions: 72 hours, labelled drug combined with Example 3
# Mia-Paca-2 = test: Cancer cell panel, cell viability (resazurin): Pancreatic, Mia-Paca-2; conditions: Mia-Paca-2 (Pancreatic), 72 hours; labelled drug combined with Example 3
# Caki-2 = test: Cancer cell panel, cell viability (resazurin): Renal, Caki-2; conditions: Caki-2 (Renal), 72 hours; labelled drug combined with Example 3
# Protocol: as §1, §2
# BT-20 = test: Cancer cell panel, cell viability (resazurin): Breast, BT-20; conditions: BT-20 (Breast), 72 hours; labelled drug combined with Example 3
# A375 = test: Cancer cell panel, cell viability (resazurin): Melanoma, A375; conditions: 72 hours, labelled drug combined with Example 3
# RPMI8226 = test: Cancer cell panel, cell viability (resazurin): multiple myeloma, RPMI8226; conditions: 72 hours, labelled drug combined with Example 3
# SK-MEL-24 = test: Cancer cell panel, cell viability (resazurin): Melanoma, SK-MEL-24; conditions: SK-MEL-24 (Melanoma), 72 hours; labelled drug combined with Example 3
# Protocol: as §1, §2
# MOLT4 = test: Cancer cell panel, cell viability (resazurin): Leukemia, MOLT4; conditions: 72 hours, labelled drug combined with Example 3
# BxPC3 = test: Cancer cell panel, cell viability (resazurin): Pancreatic, BxPC3; conditions: 72 hours, labelled drug combined with Example 3
# SK-MEL-3 = test: Cancer cell panel, cell viability (resazurin): Melanoma, SK-MEL-3; conditions: SK-MEL-3 (Melanoma), 72 hours; labelled drug combined with Example 3
# U87MG = test: Cancer cell panel, cell viability (resazurin): Glioblastoma, U87MG; conditions: 72 hours, labelled drug combined with Example 3
# Protocol: as §1, §2
# Caki-1 = test: Cancer cell panel, cell viability (resazurin): Renal, Caki-1; conditions: Caki-1 (Renal), 72 hours; labelled drug combined with Example 3
# Protocol: as §1, §2
# ZR-75-1 = test: Cancer cell panel, cell viability (resazurin): Breast, ZR-75-1; conditions: ZR-75-1 (Breast), 72 hours; labelled drug combined with Example 3
# Protocol: as §1, §2
# H1299 = test: Cancer cell panel, cell viability (resazurin): NSCLC, H1299; conditions: 72 hours, labelled drug combined with Example 3
# Protocol: as §1, §2
# Panc-1 = test: Cancer cell panel, cell viability (resazurin): Pancreatic, Panc-1; conditions: Panc-1 (Pancreatic), 72 hours; labelled drug combined with Example 3
# Protocol: as §1, §2
# HL60 = test: Cancer cell panel, cell viability (resazurin): Leukemia, HL60; conditions: 72 hours, labelled drug combined with Example 3
# Protocol: as §1, §2
# H1975 = test: Cancer cell panel, cell viability (resazurin): NSCLC, H1975; conditions: 72 hours, labelled drug combined with Example 3
smiles,measurement,setting,value
"CC(=O)Nc1cccc(-n2c(=O)n(C3CC3)c(=O)c3c(Nc4ccc(I)cc4F)n(C)c(=O)c(C)c32)c1 [Trametinib, trametinib]","synergy, additivity or antagonism of the combination of Example 3 with the anti-cancer drug",LoVo,+ + (Slight synergy relative to each agent alone (CI = 0.75-0.9 by Bliss Independence Model))
same,"synergy, additivity or antagonism of the combination of Example 3 with the anti-cancer drug",786-O,+ + + (Synergy relative to each agent alone (CI = 0.4-0.74 by Bliss Independence Model))
same,"synergy, additivity or antagonism of the combination of Example 3 with the anti-cancer drug",U266,+ + (Slight synergy relative to each agent alone (CI = 0.75-0.9 by Bliss Independence Model))
same,"synergy, additivity or antagonism of the combination of Example 3 with the anti-cancer drug",MDA-MB-231,+ + (Slight synergy relative to each agent alone (CI = 0.75-0.9 by Bliss Independence Model))
same,"synergy, additivity or antagonism of the combination of Example 3 with the anti-cancer drug",EOL-1,+ + (Slight synergy relative to each agent alone (CI = 0.75-0.9 by Bliss Independence Model))
same,"synergy, additivity or antagonism of the combination of Example 3 with the anti-cancer drug",OVCAR-3,+ + (Slight synergy relative to each agent alone (CI = 0.75-0.9 by Bliss Independence Model))
same,"synergy, additivity or antagonism of the combination of Example 3 with the anti-cancer drug",Caov-3,+ + (Slight synergy relative to each agent alone (CI = 0.75-0.9 by Bliss Independence Model))
same,"synergy, additivity or antagonism of the combination of Example 3 with the anti-cancer drug",H460,+ + + (Synergy relative to each agent alone (CI = 0.4-0.74 by Bliss Independence Model))
same,"synergy, additivity or antagonism of the combination of Example 3 with the anti-cancer drug",A549,+ + + + (Strong synergy relative to each agent alone (CI < 0.4 by Bliss Independence Model))
same,"synergy, additivity or antagonism of the combination of Example 3 with the anti-cancer drug",A2780,+ + (Slight synergy relative to each agent alone (CI = 0.75-0.9 by Bliss Independence Model))
same,"synergy, additivity or antagonism of the combination of Example 3 with the anti-cancer drug",K562,+ (Additive relative to each agent alone (CI = 0.9-1 by Bliss Independence Model and <0.9 by Highest Single Agent Model))
same,"synergy, additivity or antagonism of the combination of Example 3 with the anti-cancer drug",HCT116,+ + + (Synergy relative to each agent alone (CI = 0.4-0.74 by Bliss Independence Model))
same,"synergy, additivity or antagonism of the combination of Example 3 with the anti-cancer drug",MeWO,+ + (Slight synergy relative to each agent alone (CI = 0.75-0.9 by Bliss Independence Model))
same,"synergy, additivity or antagonism of the combination of Example 3 with the anti-cancer drug",HT29,+ (Additive relative to each agent alone (CI = 0.9-1 by Bliss Independence Model and <0.9 by Highest Single Agent Model))
same,"synergy, additivity or antagonism of the combination of Example 3 with the anti-cancer drug",MDA-MB-157,+ + (Slight synergy relative to each agent alone (CI = 0.75-0.9 by Bliss Independence Model))
same,"synergy, additivity or antagonism of the combination of Example 3 with the anti-cancer drug",Colo205,+ + + (Synergy relative to each agent alone (CI = 0.4-0.74 by Bliss Independence Model))
same,"synergy, additivity or antagonism of the combination of Example 3 with the anti-cancer drug",WM-115,+ + (Slight synergy relative to each agent alone (CI = 0.75-0.9 by Bliss Independence Model))
same,"synergy, additivity or antagonism of the combination of Example 3 with the anti-cancer drug",DLD-1,+ + + (Synergy relative to each agent alone (CI = 0.4-0.74 by Bliss Independence Model))
same,"synergy, additivity or antagonism of the combination of Example 3 with the anti-cancer drug",H23,+ + + (Synergy relative to each agent alone (CI = 0.4-0.74 by Bliss Independence Model))
same,"synergy, additivity or antagonism of the combination of Example 3 with the anti-cancer drug",Mia-Paca-2,+ (Additive relative to each agent alone (CI = 0.9-1 by Bliss Independence Model and <0.9 by Highest Single Agent Model))
same,"synergy, additivity or antagonism of the combination of Example 3 with the anti-cancer drug",Caki-2,− − − (Strongly antagonistic relative to each agent alone (CI > 1.49 by Highest Single Agent Model))
same,"synergy, additivity or antagonism of the combination of Example 3 with the anti-cancer drug",BT-20,+ + + (Synergy relative to each agent alone (CI = 0.4-0.74 by Bliss Independence Model))
same,"synergy, additivity or antagonism of the combination of Example 3 with the anti-cancer drug",A375,+ + (Slight synergy relative to each agent alone (CI = 0.75-0.9 by Bliss Independence Model))
same,"synergy, additivity or antagonism of the combination of Example 3 with the anti-cancer drug",RPMI8226,+ + (Slight synergy relative to each agent alone (CI = 0.75-0.9 by Bliss Independence Model))
same,"synergy, additivity or antagonism of the combination of Example 3 with the anti-cancer drug",SK-MEL-24,+ + (Slight synergy relative to each agent alone (CI = 0.75-0.9 by Bliss Independence Model))
same,"synergy, additivity or antagonism of the combination of Example 3 with the anti-cancer drug",MOLT4,+ (Additive relative to each agent alone (CI = 0.9-1 by Bliss Independence Model and <0.9 by Highest Single Agent Model))
same,"synergy, additivity or antagonism of the combination of Example 3 with the anti-cancer drug",BxPC3,+ + + + (Strong synergy relative to each agent alone (CI < 0.4 by Bliss Independence Model))
same,"synergy, additivity or antagonism of the combination of Example 3 with the anti-cancer drug",SK-MEL-3,+ (Additive relative to each agent alone (CI = 0.9-1 by Bliss Independence Model and <0.9 by Highest Single Agent Model))
same,"synergy, additivity or antagonism of the combination of Example 3 with the anti-cancer drug",U87MG,+ + (Slight synergy relative to each agent alone (CI = 0.75-0.9 by Bliss Independence Model))
same,"synergy, additivity or antagonism of the combination of Example 3 with the anti-cancer drug",Caki-1,+ (Additive relative to each agent alone (CI = 0.9-1 by Bliss Independence Model and <0.9 by Highest Single Agent Model))
same,"synergy, additivity or antagonism of the combination of Example 3 with the anti-cancer drug",ZR-75-1,+ + (Slight synergy relative to each agent alone (CI = 0.75-0.9 by Bliss Independence Model))
same,"synergy, additivity or antagonism of the combination of Example 3 with the anti-cancer drug",H1299,+ (Additive relative to each agent alone (CI = 0.9-1 by Bliss Independence Model and <0.9 by Highest Single Agent Model))
same,"synergy, additivity or antagonism of the combination of Example 3 with the anti-cancer drug",Panc-1,+ (Additive relative to each agent alone (CI = 0.9-1 by Bliss Independence Model and <0.9 by Highest Single Agent Model))
same,"synergy, additivity or antagonism of the combination of Example 3 with the anti-cancer drug",HL60,+ + (Slight synergy relative to each agent alone (CI = 0.75-0.9 by Bliss Independence Model))
same,"synergy, additivity or antagonism of the combination of Example 3 with the anti-cancer drug",H1975,+ + + (Synergy relative to each agent alone (CI = 0.4-0.74 by Bliss Independence Model))
